Laboratory results reported in patent US6756359B2, “C12 modified erythromycin macrolides and ketolides having antibacterial activity” (Chiron Corporation, priority 2001, dated 2004).
Values after ≈ are worked out from the molar mass of the structure shown.

How the values were obtained:
Assay in all cases: Antibacterial activity in vitro, MIC by broth microdilution
[1] = system: S. pneumoniae Stpn_Erm S 4297; type: cell-based, Streptococcus pneumoniae; conditions: Table 5, Strain ID J: S. pneumoniae Stpn_Erm S 4297; unit assumed
Description: (§1) Representative compounds of the present invention were assayed in vitro for antibacterial activity against the bacterial isolates listed in Table 1 as follows:
(§2) The bacterial isolates listed in Table 1 were cultivated from −70° C. frozen stocks by two consecutive overnight passages (P1, P2) at 35° C. on 5% blood agar (Remel, Lenexa, Kans.). Chocolate agar (Remel) is used for Haemophilus influenzae. H. influenzae and Streptococcus pneumoniae are incubated in 5-10% CO2.
(§3) To determine the amount of solvent to be used to give the desired final concentration, the formula “weight obtained in mg/final concentration in mg/mL” will be used. It will give the amount of solvent in mL needed to be added to give the desired concentration. For example, if 2.5 mg/mL is the desired concentration and the weight of compound is 13.7 mg, then the amount of solvent to be added is 3.94 mL (13.7 mg/2.5 mg/mL=3.94 mLs). Methanol is used as the solvent to dissolve the test compounds. Further dilution of stock is done in sterile, deioinzed water. Drug stocks are kept frozen at −70° C., protected from light.
(§4) MICs are determined by the broth microdilution method in accordance with the NCCLS guidelines. In brief, organism suspensions are adjusted to a 0.5 McFarland standard to yield a final inoculum between 3×10^5 and 7×10^5 CFU/mL. Drug dilutions and inocula are made in sterile, cation adjusted Mueller-Hinton Broth (CAMHB) (Remel) for all but S. pneumoniae [CAMHB with 2-5% lysed horse blood (Remel)] and H. influenzae [Haemophilus Test Medium (Remel)]. An inoculum volume of 100 μl is added to wells containing 100 μl of broth with 2-fold serial dilutions of drug. All inoculated microdilution trays are incubated in ambient air at 35° C. for 18-24 hours, except for S. pneumoniae, and H. influenzae (both at 5-10% CO2).
(§5) Following appropriate incubation, the MIC is determined and the MIC is defined as the lowest concentration of the drug that prevented visible growth.

[2] = system: S. pneumoniae Stpn_Mef S 3427; type: cell-based, Streptococcus pneumoniae; conditions: Table 5, Strain ID L: S. pneumoniae Stpn_Mef S 3427
Description: as §1, §2, §3, §4, §5

[3] = system: S. pneumoniae Stpn_Mef 5654; type: cell-based, Streptococcus pneumoniae; conditions: Table 5, Strain ID K: S. pneumoniae Stpn_Mef 5654; unit assumed
Description: as §1, §2, §3, §4, §5

[4] = system: S. pneumoniae Stpn_297-749 Pen R; type: cell-based, Streptococcus pneumoniae; conditions: Table 5, Strain ID G: S. pneumoniae Stpn_297-749
Description: as §1, §2, §3, §4, §5

S. pneumoniae Stpn_49619 = type: cell-based, Streptococcus pneumoniae; conditions: Table 5, Strain ID F: S. pneumoniae Stpn_49619
Description: as §1, §2, §3, §4, §5

[5] = system: S. pneumoniae Stpn_280-962 Pen S; type: cell-based, Streptococcus pneumoniae; conditions: Table 5, Strain ID H: S. pneumoniae Stpn_280-962
Description: as §1, §2, §3, §4, §5

[6] = system: S. pneumoniae Stpn_Erm 6849; type: cell-based, Streptococcus pneumoniae; conditions: Table 5, Strain ID I: S. pneumoniae Stpn_Erm 6849; unit assumed
Description: as §1, §2, §3, §4, §5

H. influenzae Hain_49247 = type: cell-based, Haemophilus influenzae; conditions: Table 5, Strain ID M: H. influenzae Hain_49247; unit assumed
Description: as §1, §2, §3, §4, §5

[7] = system: S. epidermidis Step_14990; type: cell-based; conditions: Table 5, Strain ID B: S. epidermidis Step_14990; unit assumed
Description: as §1, §2, §3, §4, §5

S. pyogenes Stpy_8668 = type: cell-based; conditions: Table 5, Strain ID E: S. pyogenes Stpy_8668
Description: as §1, §2, §3, §4, §5

E. faecalis Enfa_29212 = type: cell-based; conditions: Table 5, Strain ID D: E. faecalis Enfa_29212; unit assumed
Description: as §1, §2, §3, §4, §5

[8] = system: S. epidermidis Step_f50654 Pen S; type: cell-based; conditions: Table 5, Strain ID C: S. epidermidis Step_f50654; unit assumed
Description: as §1, §2, §3, §4, §5

S. aureus Stau_29213 = type: cell-based; conditions: Table 5, Strain ID A: S. aureus Stau_29213; unit assumed
Description: as §1, §2, §3, §4, §5

CC[C@H]1OC(=O)[C@@](C)(F)C(=O)[C@H](C)[C@@H](OC2O[C@H](C)C[C@H](N(C)C)[C@H]2O)[C@@](C)(OC)C[C@@H](C)C(=O)[C@H](C)[C@H]2N(CCCCc3ccnc4ccccc34)C(=O)O[C@]12CC (stereo partly drawn) [Example 17, (3aS,4R,7S,9R,10R,11S,13R,15R,15aR)-3a,4-diethyl-7-fluoro-11-methoxy-7,9,11,13,15-pentamethyl-2,6,8,14-tetraoxo-1-(4-quinolin-4-ylbutyl)tetradecahydro-2H-oxacyclotetradecino[4,3-d][1,3]oxazol-10-yl 3,4,6-trideoxy-3-(dimethylamino)-D-xylo-hexopyranoside]
MIC [1]: 0.2 µg/mL (≈ 0.242 µM) | MIC ([2]; unit assumed): 0.1 µg/mL (≈ 0.121 µM) | MIC [3]: 0.4 µg/mL (≈ 0.483 µM) | MIC [4]: ≦0.05 | MIC (S. pneumoniae Stpn_49619): ≦0.05 | MIC [5]: ≦0.05 | MIC [6]: 0.78 µg/mL (≈ 0.942 µM) | MIC (H. influenzae Hain_49247): 3.13 µg/mL (≈ 3.78 µM) | MIC [7]: 0.4 µg/mL (≈ 0.483 µM) | MIC (S. pyogenes Stpy_8668; unit assumed): 0.1 µg/mL (≈ 0.121 µM) | MIC (E. faecalis Enfa_29212): 0.2 µg/mL (≈ 0.242 µM) | MIC [8]: 0.4 µg/mL (≈ 0.483 µM) | MIC (S. aureus Stau_29213): 0.4 µg/mL (≈ 0.483 µM)

C/C=C/[C@]12OC(=O)N(CCCCn3cnc(-c4cccnc4)c3)[C@@H]1[C@@H](C)C(=O)[C@H](C)C[C@](C)(OC)[C@H](O[C@@H]1O[C@H](C)C[C@H](N(C)C)[C@H]1O)[C@@H](C)C(=O)[C@@H](C)C(=O)O[C@@H]2CC [65(2), (3aS,4R,7R,9R,10R,11S,13R,15R,15aR)-4-ethyl-11-methoxy-7,9,11,13,15-pentamethyl-2,6,8,14-tetraoxo-3a-[(1E)-prop-1-enyl]-1-[4-(4-pyridin-3-yl-1H-imidazol-1-yl)butyl]tetradecahydro-2H-oxacyclotetradecino[4,3-d][1,3]oxazol-10-yl 3,4,6-trideoxy-3-(dimethylamino)-D-xylo-hexopyranoside]
MIC [1]: 0.4 µg/mL (≈ 0.477 µM) | MIC ([2]; unit assumed): 0.2 µg/mL (≈ 0.239 µM) | MIC [3]: 0.78 µg/mL (≈ 0.931 µM) | MIC [4]: ≦0.05 | MIC (S. pneumoniae Stpn_49619): ≦0.05 | MIC [5]: ≦0.05 | MIC [6]: 0.78 µg/mL (≈ 0.931 µM) | MIC (H. influenzae Hain_49247): 25 µg/mL (≈ 29.8 µM) | MIC [7]: 3.13 µg/mL (≈ 3.73 µM) | MIC (S. pyogenes Stpy_8668; unit assumed): 0.2 µg/mL (≈ 0.239 µM) | MIC (E. faecalis Enfa_29212): 0.78 µg/mL (≈ 0.931 µM) | MIC [8]: 3.13 µg/mL (≈ 3.73 µM) | MIC (S. aureus Stau_29213): 3.13 µg/mL (≈ 3.73 µM)

CC[C@H]1OC(=O)[C@H](C)C(=O)[C@H](C)[C@@H](OC2O[C@H](C)C[C@H](N(C)C)[C@H]2O)[C@@](C)(OC)C[C@@H](C)C(=O)[C@H](C)[C@H]2N(CCCCn3cnc4cccnc43)C(=O)O[C@]12CC (stereo partly drawn) [Example 14, (3aS,4R,7R,9R,10R,11S,13R,15R,15aR)-3a,4-diethyl-1-[4-(3H-imidazo[4,5-b]pyridin-3-yl)butyl]-11-methoxy-7,9,11,13,15-pentamethyl-2,6,8,14-tetraoxotetradecahydro-2H-oxacyclotetradecino[4,3-d][1,3]oxazol-10-yl 3,4,6-trideoxy-3-(dimethylamino)-D-xylo-hexopyranoside]
MIC [1]: 0.1 µg/mL (≈ 0.125 µM) | MIC [2]: ≦0.05 | MIC [3]: 0.4 µg/mL (≈ 0.5 µM) | MIC [4]: ≦0.05 | MIC (S. pneumoniae Stpn_49619): ≦0.05 | MIC [5]: ≦0.05 | MIC [6]: 0.4 µg/mL (≈ 0.5 µM) | MIC (H. influenzae Hain_49247): 3.13 µg/mL (≈ 3.91 µM) | MIC [7]: 0.2 µg/mL (≈ 0.25 µM) | MIC (S. pyogenes Stpy_8668): ≦0.05 | MIC (E. faecalis Enfa_29212): 0.1 µg/mL (≈ 0.125 µM) | MIC [8]: 0.2 µg/mL (≈ 0.25 µM) | MIC (S. aureus Stau_29213): 0.4 µg/mL (≈ 0.5 µM)

CC[C@H]1OC(=O)[C@H](C)C(=O)[C@H](C)[C@@H](OC2O[C@H](C)C[C@H](N(C)C)[C@H]2O)[C@@](C)(OC)C[C@@H](C)C(=O)[C@H](C)[C@H]2N(CCCCn3cnc4ncccc43)C(=O)O[C@]12CC (stereo partly drawn) [Example 22, (3aS,4R,7R,9R,10R,11S,13R,15R,15aR)-3a,4-diethyl-1-[4-(1H-imidazo[4,5-b]pyridin-1-yl)butyl]-11-methoxy-7,9,11,13,15-pentamethyl-2,6,8,14-tetraoxotetradecahydro-2H-oxacyclotetradecino[4,3-d][1,3]oxazol-10-yl 3,4,6-trideoxy-3-(dimethylamino)-D-xylo-hexopyranoside]
MIC [1]: 0.1 µg/mL (≈ 0.125 µM) | MIC ([2]; unit assumed): 0.2 µg/mL (≈ 0.25 µM) | MIC [3]: 0.78 µg/mL (≈ 0.975 µM) | MIC [4]: ≦0.05 | MIC (S. pneumoniae Stpn_49619): ≦0.05 | MIC [5]: ≦0.05 | MIC [6]: 0.2 µg/mL (≈ 0.25 µM) | MIC (H. influenzae Hain_49247): 3.13 µg/mL (≈ 3.91 µM) | MIC [7]: 0.4 µg/mL (≈ 0.5 µM) | MIC (S. pyogenes Stpy_8668): ≦0.05 | MIC (E. faecalis Enfa_29212): 0.2 µg/mL (≈ 0.25 µM) | MIC [8]: 0.4 µg/mL (≈ 0.5 µM) | MIC (S. aureus Stau_29213): 0.4 µg/mL (≈ 0.5 µM)
